This is an account of results in patent US11952365B2, “Anti-viral compounds” (Aligos Therapeutics, Inc., priority 2020, dated 2024).

Structures are written as SMILES. Where two headings read alike, the source gives them in different places.

One series addresses T1, human cathepsin L (Homo sapiens, UniProt P07711).
T1 construct: purchased R&D Systems
As to the kind of experiment: cathepsin L assay. The series is classed as biochemical. The settings on record: 10 pM human cathepsin L, Z-FR-AMC 2 μM, class symbols. An outline of the steps:
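Reactions began by adding 2 μM (final) Z-FR-AMC substrate to 10 pM human cathepsin L that had been preincubated 30 min with inhibitor. Kinetic AMC fluorescence at 355/460 nm over 30 min at 2-min intervals; four-parameter fitting gave IC50 values.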

A further series concerns the target 3CLpro (Severe acute respiratory syndrome coronavirus 2, UniProt P0DTD1). Nature of the series: SARS-CoV-2 3CLpro protease assay (duplex, SAMDI-MS). Also on record: For the duplex assay, 3CLpro and HRV3C was added. It is filed as biochemical. The following applies: 3CLpro, 30 mins preincubation, read-out: SARS-Cov-2 IC50.
Series [1] deals with human beta-coronavirus OC43. Nature of the series: microbe, parasite or virus in culture. The following applies: Betacoronavirus 1, OC43, HeLa, 144 h. The series is classed as cell-based.
The subject of series [2] is SARS-CoV-2-GHB-03021/2020. Nature of the series: SARS-CoV-2 Infection Model in Huh7 Cells. It is filed as cell-based. The settings on record: Severe acute respiratory syndrome coronavirus 2, Huh-7, 96 h, SARS-CoV-2, day 4 p.i., MTS, class symbols.
Series [3] deals with SARS-CoV-2-GHB-03021/2020. Nature of the series: microbe, parasite or virus in culture. The settings on record: Severe acute respiratory syndrome coronavirus 2, Vero C1008, 96 h; read-out: VeroE6 + CP (EC50). It is filed as cell-based.
The nature of series [4]: in vitro. The following applies: human.
In another series the target is HRV3C (Human rhinovirus 14, UniProt P03303). As to the kind of experiment: HRV3C protease assay (duplex, SAMDI-MS). It is filed as biochemical, HRV. An outline of the steps:
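Readout is SAMDI mass spectrometry: biotinylated substrates, products and internal standards were immobilized on neutravidin monolayers and product formation taken as the AUC ratio to internal standard. Reactions ran 30 min at ambient temperature after 30 min compound preincubation, in duplex with 3CLpro. IC50 values came from four-parameter curve fitting.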

Series [5] is described as follows: Cytotoxicity plates without OC43 virus (cell-titer-glo). The series is classed as cell-based, human. The settings on record: human; HeLa cells without OC43 virus, class symbols. An outline of the steps:
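Run as a virus-free counterpart of the OC43 cytopathic-effect assay. Attached HeLa cells received compound dilutions in EMEM with 2% FBS and were kept 6 days at 33 °C. Cell viability was then measured by CellTiter-Glo luminescence.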

Series [6] in a line: in vitro. The settings on record: African green monkey, VeroE6 + CP (CC50), Vero E6-eGFP cells with CP-100356, absence of virus, MTS.
[7] abbreviates: OC43 in HeLa cells, 6 days at 33° C., class symbols, read-out: EC50.
The mark [8] stands for this setting: HRV3C, 30 mins preincubation, class symbols, read-out: HRV IC50.
Setting [9] is: HRV3C, 30 mins preincubation, bound, read-out: HRV IC50.

One may read the IC50 as the midpoint of a concentration-inhibition curve. Broadly, the EC50 is the concentration needed to bring the measured effect to its halfway point. As for `COc1cc(Cl)cc2[nH]c(C(=O)N3C[C@@H]4CCC[C@@H]4[C@H]3C(=O)N[C@@H](C[C@@H]3CCNC3=O)C(=O)CO)cc12` [Compound 88, (1S,3aR,6aS)-2-(6-chloro-4-methoxy-1H-indole-2-carbonyl)-N-[(2S)-4-hydroxy-3-oxo-1-[(3S)-2-oxopyrrolidin-3-yl]butan-2-yl]-hexahydro-1H-cyclopenta[c]pyrrole-1-carboxamide], the results for the IC50 at human cathepsin L, on 3CLpro (class symbols) and on HRV3C (setting [8]) were no less than 10 µM, less than 0.02 µM and 2 to 20 µM, respectively. For the same compound, the values for the EC50 in series [1] (setting [7]), in series [2] and in series [3] were less than 0.1 µM, less than 1 µM and less than 1 µM, respectively. In addition, the CC50 is greater than 10 µM in “in vitro [4]” and greater than 100 µM in “in vitro [6]” (numeric bounds). In series [5], this compound registered a CC50 at 6 days greater than 10 µM.

As to `O=C1NCC[C@H]1C[C@H](NC(=O)[C@@H]1[C@H]2CCC[C@H]2CN1C(=O)c1cc2ccsc2[nH]1)C(=O)CO` [Compound 80, (1S,3aR,6aS)—N-[(2S)-4-hydroxy-3-oxo-1-[(3S)-2-oxopyrrolidin-3-yl]butan-2-yl]-2-{6H-thieno[2,3-b]pyrrole-5-carbonyl}-hexahydro-1H-cyclopenta[c]pyrrole-1-carboxamide], the IC50 on human cathepsin L is no less than 10 µM; at 3CLpro (class symbols), 0.02 to 0.2 µM; on HRV3C (HRV IC50, HRV3C, 30 mins preincubation, class symbols), 2 to 20 µM. Also, the EC50 in [1], in series [2] and in series [3] was 1 to 10 µM each time. The CC50 in the series “in vitro [4]” and in the series “in vitro [6]” (numeric bounds) was greater than 50 µM each time. Moreover, the CC50 at 6 days in series [5] is greater than 10 µM.

As for `O=C(NC1CC1)C(=O)[C@H](C[C@@H]1CCNC1=O)NC(=O)[C@@H]1CC2(CCN1C(=O)c1cc3c(C(F)(F)F)cccc3[nH]1)CC2` [Compound 170], the IC50 against human cathepsin L is 0.1 to 1 µM; at 3CLpro (class symbols), 0.02 to 0.2 µM; on HRV3C (setting [8]), 0.2 to 2 µM. The half-maximal effective concentration (EC50) was in the range of 1 to 10 µM in [1] (setting [7]), 1 to 10 µM in [2] and 10 to 100 µM in series [3]. In addition, the figures for the CC50 in “in vitro [4]” and in “in vitro [6]” (numeric bounds) were greater than 10 µM and greater than 50 µM, respectively. In series [5], this compound came in with a CC50 at 6 days greater than 10 µM.

Consider `COc1cccc2[nH]c(C(=O)N3C[C@@H]4CCC[C@@H]4[C@H]3C(=O)N[C@@H](C[C@@H]3CCNC3=O)C(=O)C(=O)NCCOc3ccccc3)cc12` [Compound 134], for which the half-inhibitory concentration (IC50) at human cathepsin L is no less than 10 µM; on 3CLpro (class symbols) it was less than 0.02 µM; on HRV3C (setting [8]), 2 to 20 µM. In addition, the EC50 in series [1] (setting [7]) lay within 0.1 to 1 µM; in series [2], 1 to 10 µM; in series [3] it was 1 to 10 µM. Further, the CC50 in the series “in vitro [4]” and in “in vitro [6]” (numeric bounds) was greater than 50 µM in each case. The same compound showed a CC50 at 6 days in series [5] greater than 10 µM.

For the compound `COc1cccc2[nH]c(C(=O)N3C[C@@H]4CCC[C@@H]4[C@H]3C(=O)N[C@@H](C[C@H]3CC(C)(C)NC3=O)C(=O)CO)cc12` [Compound 70_2], the concentration for half-maximal inhibition (IC50) against human cathepsin L was no less than 10 µM; at 3CLpro (class symbols), 0.2 to 2 µM; at HRV3C (HRV3C, printed bound without unit, read-out: HRV IC50), greater than 10 µM. In addition, the half-maximal effective concentration (EC50) lay in the range of 1 to 10 µM in series [1] (setting [7]), 10 to 100 µM in series [2] and 10 to 100 µM in series [3]. Also, the CC50 in “in vitro [4]” and in “in vitro [6]” (numeric bounds) was greater than 50 µM in each case. For the same compound, the CC50 at 6 days in series [5] was greater than 10 µM.

For the compound `O=C1NCC[C@H]1C[C@H](NC(=O)[C@@H]1[C@H]2CCC[C@H]2CN1C(=O)c1cc2c(Cl)ccc(OCc3ccccc3)c2[nH]1)C(=O)CO` [Compound 128, (1S,3aR,6aS)-2-[7-(benzyloxy)-4-chloro-1H-indole-2-carbonyl]-N-[(2S)-4-hydroxy-3-oxo-1-[(3S)-2-oxopyrrolidin-3-yl]butan-2-yl]-hexahydro-1H-cyclopenta[c]pyrrole-1-carboxamide], the IC50 was no less than 10 µM against human cathepsin L, 0.02 to 0.2 µM at 3CLpro (class symbols) and greater than 10 µM on HRV3C (setting [9]). Further, the EC50 is less than 0.1 µM in [1] (setting [7]), less than 1 µM in series [2] and 1 to 10 µM in series [3]. For the same compound, the CC50 in the series “in vitro [4]” and in “in vitro [6]” (class symbols) was greater than 10 µM each time. The CC50 at 6 days in series [5] is greater than 10 µM.

Regarding `O=C1NCC[C@H]1C[C@H](NC(=O)[C@@H]1[C@H]2CCC[C@H]2CN1C(=O)c1cc2c(Oc3ccccc3)cccc2[nH]1)C(=O)CO` [Compound 123, (1S,3aR,6aS)—N-[(2S)-4-hydroxy-3-oxo-1-[(3S)-2-oxopyrrolidin-3-yl]butan-2-yl]-2-(4-phenoxy-1H-indole-2-carbonyl)-hexahydro-1H-cyclopenta[c]pyrrole-1-carboxamide], the IC50 against human cathepsin L was no less than 10 µM; at 3CLpro (class symbols), 0.02 to 0.2 µM; on HRV3C (setting [9]) it was greater than 10 µM. Moreover, the concentration giving a half-maximal response (EC50) was 0.1 to 1 µM in [1] (setting [7]), 1 to 10 µM in series [2] and 1 to 10 µM in series [3]. The CC50 in “in vitro [4]” and in “in vitro [6]” (numeric bounds) was greater than 50 µM in each case. In series [5], this compound registered a CC50 at 6 days greater than 10 µM.

With `COc1cc(Cl)c(Cl)c2[nH]c(C(=O)N3C[C@@H]4CCC[C@@H]4[C@H]3C(=O)N[C@@H](C[C@@H]3CCNC3=O)C(=O)CO)cc12` [Compound 158, (1S,3aR,6aS)-2-(6,7-dichloro-4-methoxy-1H-indole-2-carbonyl)-N-[(2S)-4-hydroxy-3-oxo-1-[(3S)-2-oxopyrrolidin-3-yl]butan-2-yl]-hexahydro-1H-cyclopenta[c]pyrrole-1-carboxamide], the IC50 against human cathepsin L was no less than 10 µM; on 3CLpro (class symbols), less than 0.02 µM; on HRV3C (setting [8]), 2 to 20 µM. In addition, the EC50 is 0.1 to 1 µM in series [1] (setting [7]), less than 1 µM in series [2] and less than 1 µM in [3]. Moreover, the CC50 in the series “in vitro [4]” was greater than 10 µM; in the series “in vitro [6]” (numeric bounds) it was greater than 50 µM. Besides, the CC50 at 6 days in series [5] was greater than 10 µM.

In the case of `COc1cccc2[nH]c(C(=O)N3C[C@]4(C[C@H]3C(=O)N[C@@H](C[C@@H]3CCNC3=O)C(=O)CO)CC4(F)F)cc12` [Compound 39], the IC50 was no less than 10 µM on human cathepsin L, 0.02 to 0.2 µM at 3CLpro (class symbols) and greater than 10 µM on HRV3C (setting [9]). Further, the half-maximal effective concentration (EC50) in [1] (setting [7]) fell in the range of 0.1 to 1 µM; in series [2], 1 to 10 µM; in series [3], 1 to 10 µM. Besides, the CC50 in the series “in vitro [4]” and in “in vitro [6]” (numeric bounds) was greater than 100 µM in each case. Besides, the CC50 at 6 days in series [5] is greater than 10 µM.

For the compound `O=C1NCC[C@H]1C[C@H](NC(=O)[C@@H]1[C@H]2CCC[C@H]2CN1C(=O)c1cc2c(OC(F)(F)F)cccc2[nH]1)C(=O)CO` [Compound 64, (1S,3aR,6aS)—N-[(2S)-4-hydroxy-3-oxo-1-[(3S)-2-oxopyrrolidin-3-yl]butan-2-yl]-2-[4-(trifluoromethoxy)-1H-indole-2-carbonyl]-hexahydro-1H-cyclopenta[c]pyrrole-1-carboxamide], the IC50 at human cathepsin L was no less than 10 µM; at 3CLpro (class symbols), 0.02 to 0.2 µM; at HRV3C (setting [9]) it was greater than 10 µM. Moreover, the EC50 in series [1] (setting [7]) was less than 0.1 µM; in series [2], less than 1 µM; in series [3], less than 1 µM. Further, the CC50 in the series “in vitro [4]” and in “in vitro [6]” (class symbols) was greater than 10 µM throughout. Also, the CC50 at 6 days in series [5] was greater than 10 µM.

Take `O=C(NCc1ccccc1)C(=O)[C@H](Cc1cccnc1)NC(=O)[C@@H]1CC2(CC2)CN1C(=O)c1cc2ccccc2[nH]1` [Compound 111, (S)—N—((S)-4-(benzylamino)-3,4-dioxo-1-(pyridin-3-yl)butan-2-yl)-5-(1H-indole-2-carbonyl)-5-azaspiro[2.4]heptane-6-carboxamide]: the IC50 at human cathepsin L was less than 0.1 µM; at 3CLpro (bound) it was greater than 10 µM; on HRV3C (setting [9]), greater than 10 µM. The values for the EC50 in [1] (setting [7]), in [2] and in [3] were 10 to 100 µM, 1 to 10 µM and greater than 100 µM, respectively. Also, the CC50 in the series “in vitro [4]” is greater than 10 µM; in “in vitro [6]” (numeric bounds) it was greater than 100 µM. Also, the CC50 at 6 days in series [5] is greater than 10 µM.

As to `O=C1NCC[C@H]1C[C@H](NC(=O)[C@@H]1[C@H]2CCC[C@H]2CN1C(=O)c1cc2c(Cl)cc(F)c(Cl)c2[nH]1)C(=O)CO` [Compound 162, (1S,3aR,6aS)-2-(4,7-dichloro-6-fluoro-1H-indole-2-carbonyl)-N-[(2S)-4-hydroxy-3-oxo-1-[(3S)-2-oxopyrrolidin-3-yl]butan-2-yl]-hexahydro-1H-cyclopenta[c]pyrrole-1-carboxamide], the IC50 against human cathepsin L was no less than 10 µM; at 3CLpro (class symbols) it was less than 0.02 µM; on HRV3C (setting [8]), 2 to 20 µM. Also, the EC50 was less than 0.1 µM in [1] (setting [7]), less than 1 µM in [2] and less than 1 µM in [3]. In addition, the CC50 in “in vitro [4]” and in the series “in vitro [6]” (numeric bounds) was greater than 50 µM in each case. The same compound yielded a CC50 at 6 days in [5] greater than 10 µM.
